We go through two molecules from US4966962A, “Reverse analogue of actinomycin D” (Trustees of Boston University, priority 1988, dated 1990).

SMILES strings stand for the structures. *1 amine or outer side, *2 acyl side, *3 side chain or, on linkers, in order; H or OH if unused. Where a SMILES comes first, the peptide text is derived from it. Bridges are numbered along the chain shown (N, C = ends). Roman numbers before positions name the chains, in order. [ ]: non-standard residue; d: D form. Actinocin(9to1) = Cc1c2oc3c(C)ccc(C(=O)[*:1])c3nc-2c(C(=O)[*:2])c(N)c1=O; NMeV = CN[C@H](C(=O)O)C(C)C; Sar = CNCC(=O)O

In data set [1] the test system is supercoiled closed-circular pBR322 DNA. Description: Cleavage of closed circular pBR322 DNA. Format: biochemical. Particulars: for Percentage of closed circular pBR322 DNA cleaved: 20° C., 1 h, Na2S2O4, FeCl2. The protocol: The cleavage of DNA was followed by monitoring of the conversion of supercoiled closed-circular pBR322 DNA to open-circular DNA (analyzed by agarose gel electrophoresis and quantitated by staining with 0.5 ug/mL of ethidium bromide for 30 min and densitometry; (Table II). SAD and RAD show strong DNA-cleaving ability in the presence of sodium hydrosulfite and ferrous chloride. Presumably, sodium hydrosulfite acts as a reducing agent and regenerates Fe(II) from Fe(III) to produce a continuous source of the active metal ion. When the DNA-cleaving reaction with the analogues was performed at 20° C., the ratio of cleaved DNA (open circular form DNA versus closed circular DNA) was almost maximum within 1 h. […] Cleavage of DNA by the analogues is aided by the actinomycin chromopeptide moiety, which acts as a site-specific binder to DNA, and is effected by the aminoquinone function which is chelated to the ferrous ion during the process, and this is the likely candidate which generates the radical species.
Plasmid DNA pBR322 (0.5 ug) was dissolved in /8 μL of a reaction buffer (5 mM […], 10 mM Tris-HCl). To this solution, 1 μL of the 10 mM aqueous solution of the agent containing 1 mM FeCl2 was added. The mixture was incubated for 0.5-2 h at 20° or 37° C. Then, the incubation mixture was mixed with 10 uL of sample loading buffer (50% glycerin in 2 X Boyer's buffer containing 0.01% bromophenol blue). Finally, 5 uL of the mixture was analyzed by 0.7% agarose gel electrophoresis (120 V, Boyer's buffer; the migration distance of bromophenol blue was 5.0 cm). The gel was stained with […] of ethidium bromide and then quantitated by densitometry.
^a Ten microliters of 200 u M pBR322 DNA nucelotides in UM 10 mM
TrisHCl (pH 7.8) and 50 mM NaCl, containing 4 mM Na2 --S2
O4 and 100 μM FeCl2, was incubated with drug concentration a
20° C. for 1 h; the reaction mixture was kept saturated with air
throughout the incubation period.
^b Percentage of DNA was calculated from the amounts of openand
closedcir- cular DNA in the incubation mixture.

In data set [2] the test system is P388/S (adriamycin sensitive) leukemia. Description: Antitumor activity in vivo, P388/S leukemia. Further details: species or system mice. Conditions: for tumor free survivors/total on day 60: P388/S, at optimal dose, ip days 1, 5, 9. The protocol:
The analogues were tested for their antitumor activities in P388 lymphocytic leukemia in male BDF1 mice.
^a Male CDF1 mic inoculated ip: 10^6 cells inoculum, day 0.
Drugs administered in 10% dimethyl sulfoxidesaline on days 1, 5, and 9. %
ILS = percent increase in life span. Fractions in parentheses = tumor fre
survivors/total on day 60^b. P388/S (adriamycin sensitive) and
P388/ADR (adriamycin resistant) tumors were evaluated in the same
experiment with agent listed.

In another data set the test system is colon 38 adenocarcinoma. Briefly: Activity against advanced colon carcinoma C38 tumor. Type of data set: in vivo, CDF1 mice. Particulars: for % inhibn of tumor: tumors measured day 21. The protocol:
In view of favorable activity agianst colon 26 carcinoma, further experiments using the active analogues were carried out on the advanced colon adenocarcinomas of mouse colon 38. […] The superiority of RAD III and SAD over AMD in inhibiting colon 38 carcinoma is evident from the data of both tumor weight inhibition and increases in survival time of the treated over nontreated mice and the larger number of long-term survivors produced by these analogues.
^a CDF1 mice were injected sc with colon 38 adenocarcinoma
fragments (70 mg) and treated with drugs with iv injections on day 1, 5,
and 9 following tumor imoplantation on day 0. ^b [100 (tumor weight o
treated mice/tumor weight of untreated mice)] × 100; data pooled
from two experiments, tumors measured on day 21 after implantation ^c
(Median survival time of treated mice/median survival of untreated mice)
× 100; in parenthesis, number of over 100 day survivors/number of […]

Data set [3] concerns CX-1 human colon adenocarcinoma. Briefly: Chemotherapy of human colon CX-1 tumor heterotransplanted in nude mice. Type of data set: in vivo, human tumor in athymic mice. Particulars: for % T/C, optimal: TST 15, observed day 22; for response of CX-1 tumor to treatment (in words): three iv treatments weekly from 15th day of transplant, at the doses tested. On the procedure:
Tables XI and XII show the effectiveness of SAD (2) and RAD (3b and 3c) against CX-1 human colon adenocarcinoma heterotransplanted into athymic mice, with three iv treatments with drugs on a weekly schedule starting on the 15th day of tumor transplant. AMD and the analogues were tested at doses of 45 and 60 ug/kg.
^a -, % T/C high than 50%; ±, % T/C close to 50%; +, % T/C from 50
to 35%; ++, % T/C from 35% to 20%; +++, % T/C lower than 20%; ++++,
regression of the tumor to a volume lower than 10% of the volume at the
start of treatment. ^b Statistically significant as evaluated by the
^a Intravenous treatment, once a week for three weeks; eight mice per
group. ^b TST; number of days between tumor transplant and starting o
treatment. ^c Numbers in parentheses; day of observation after the […]

The next data set deals with mammary MX-1. Description: Treatment of mammary MX-1 tumor. Conditions: at the doses tested. Type of data set: in vivo.
The nature of data set [4]: Maximum tolerated dose (LD10) in tumor-free male mice. Particulars: ip days 1, 5, 9; deaths observed during 21 days; from plot of log dose vs percent mortality. The protocol:
The analogues were also tested in tumor-free male mice for their LD10 values (Table XIV). The animals were given a broad range of doses (ip) on days 1, 5, and 9. The maximum tolerated doses of AMD and the analogues that caused death in only 10% of the tested animals in 21 days (i.e., LD10) were recorded as MTD. […] On the basis of these values, the calculated therapeutic index values of SAD is 96, and those of RAD I, II, and III are 60, 67, and 70, respectively.
control in P388 tumor bearing mice. ^c MTD (maximum tolerated dose) i
the lethal dose (milligram/kilogram) for 10% normal BDF1 male mice
days). Values were calculated from a plot of log dose vs percent

The test system of data set [5] is human colon carcinoma HT-29 cell line. Description: Cell viability by soft agar cloning. Particulars: 2 h treatment at 37° C., from plot of concentration vs colony formation. Format: cell-based. On the procedure: Furthermore, the activity of the analogues against a human colon carcinoma HT-29 cell line in culture was evaluated. After the cells were treated for 2 h with 0.01-10.0 uM of the drugs at 37° C., the cells were washed with ice-cold PBS (phosphate buffered saline), and the cell viability was assessed by soft agar cloning. Cells viability was expressed as the percentage of colonies from the drug-treated cells relative to control cells after correcting for the cloning efficiency, which ranged from 60% to 80%.

Where [6] appears, read: dose 0.075 mg/kg iv days 1, 5, 9.
Setting [7] is: dose 0.15 mg/kg iv days 1, 5, 9.
Setting [8] is: dose 0.30 mg/kg iv days 1, 5, 9.
Setting [9] is: dose 0.45 mg/kg iv days 1, 5, 9.
[10] abbreviates: dose 0.60 mg/kg iv days 1, 5, 9.
Where [11] appears, read: dose 45 μg/kg iv once a week for three weeks.
[12] abbreviates: dose 60 μg/kg iv once a week for three weeks.
Setting [13] is: dose 1.20 mg/kg iv days 1, 5, 9.

As to `Cc1c2oc3c(C)ccc(C(=O)N[C@@H]4C(=O)N[C@H](C(C)C)C(=O)N5CCC[C@H]5C(=O)N(C)CC(=O)N(C)[C@@H](C(C)C)C(=O)O[C@@H]4C)c3nc-2c(C(=O)N[C@@H]2C(=O)N[C@H](C(C)C)C(=O)N3CCC[C@H]3C(=O)N(C)CC(=O)N(C)[C@@H](C(C)C)C(=O)O[C@@H]2C)c(N)c1=O` [AMD (1), Actinomycin D] (I: T[dV]P[Sar][NMeV] / II: T[dV]P[Sar][NMeV]; ester I:1-I:C, II:1-II:C; linker I:N-II:N via Actinocin(9to1)), in data set [1], the “DNA cleaving efficiency relative to RAD III (3c) and SAD (2)” value is listed as “about 30%”. In addition, the “Percentage of closed circular pBR322 DNA cleaved” value in data set [1] worked out at 10%; in data set [1] (concn 100 M (so in the source)), 22%. In addition, the “tumor free survivors/total on day 60” value in data set [2] was 1/8. The “% T/C (median survival time)” value is 100% in the data set on colon 38 adenocarcinoma (setting [6]); 107% with colon 38 adenocarcinoma (setting [7]); 134% in the data set with colon 38 adenocarcinoma (setting [8]); 170% in the data set on colon 38 adenocarcinoma (setting [9]); 103% in the data set with colon 38 adenocarcinoma (setting [10]). The “% inhibn of tumor” value in the data set with colon 38 adenocarcinoma (setting [6]) is 30%; in the data set on colon 38 adenocarcinoma (setting [7]), 30%; with colon 38 adenocarcinoma (setting [8]), 67%; with colon 38 adenocarcinoma (setting [9]), 83%; in the data set on colon 38 adenocarcinoma (setting [10]), 89%. The “% T/C, optimal” value in data set [3] (setting [11]) is listed as 34%; in data set [3] (setting [12]), 36%. Further, in data set [3], the “response of CX-1 tumor to treatment (in words)” value is listed as “ineffective”. For the same molecule, in the data set with mammary MX-1, the “response of mammary MX-1 to treatment” value was “practically ineffective”. The “MTD (maximum tolerated dose), lethal dose for 10% of normal mice (LD10)” value in data set [4] was determined as 0.25 milligram/kilogram.
On to `Cc1c2oc3c(C)c4oc(-c5ccccc5)nc4c(C(=O)N[C@@H]4C(=O)N[C@H](C(C)C)C(=O)N5CCC[C@H]5C(=O)N(C)CC(=O)N(C)[C@@H](C(C)C)C(=O)O[C@@H]4C)c3nc-2c(C(=O)N[C@@H]2C(=O)N[C@H](C(C)C)C(=O)N3CCC[C@H]3C(=O)N(C)CC(=O)N(C)[C@@H](C(C)C)C(=O)O[C@@H]2C)c(N)c1=O` [RAD II (3b)], for which the “LD90, drug concentration producing 90% reduction in cell viability” value in data set [5] was 0.2 µM. The “tumor free survivors/total on day 60” value in data set [2] is recorded as 4/8. Further, in data set [2] (P388 lymphocytic leukemia in mice), the “effectiveness relative to AMD with respect to %ILS and long-time survivors” value is reported as “two-to threefold”. For the same molecule, the “% T/C (median survival time)” value in the data set on colon 38 adenocarcinoma (setting [7]) amounted to 103%; in the data set with colon 38 adenocarcinoma (setting [8]), 137%; with colon 38 adenocarcinoma (setting [10]) it was 170%; with colon 38 adenocarcinoma (setting [13]), 103%. For the same molecule, the entries for the “over 100 day survivors/number of mice” value in the data set with colon 38 adenocarcinoma (setting [7]), in the data set on colon 38 adenocarcinoma (setting [10]) and in the data set with colon 38 adenocarcinoma (setting [13]) were 1/9, 3/9 and 2/9, respectively. In addition, the “% inhibn of tumor” value with colon 38 adenocarcinoma (setting [7]) is listed as 29%; with colon 38 adenocarcinoma (setting [8]), 70%; in the data set with colon 38 adenocarcinoma (setting [10]), 83%; in the data set on colon 38 adenocarcinoma (setting [13]) it was 88%. For the same molecule, the “% T/C, optimal” value came to 48% in data set [3] (setting [11]) and 24% in data set [3] (setting [12]). In addition, the “response of CX-1 tumor to treatment (in words)” value in data set [3] was “marginal but positive activity”. Besides, the “MTD (maximum tolerated dose), lethal dose for 10% of normal mice (LD10)” value in data set [4] is reported as 2.00 milligram/kilogram.
